Experimental data reported in patent US5672715A, “Herbicidal substituted 3-aryl-pyrazoles” (Monsanto Company, priority 1995, dated 1997).

Assays:
Assay in all cases: pre-emergence herbicide test
Format in all cases: in vivo
Common Chickweed = conditions: pre-emergence, read-out: % plant inhibition; for inhibition at 200.072 g/ha: 0.1785 lb/A; for inhibition at 1000.92 g/ha: 0.893 lb/A; for inhibition at 5043.82 g/ha: 4.5 lb/A
Method in brief: (§1)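 Known amounts of active ingredient went into the cover soil over seeds sown in pans, either before or after the layer was spread. An initial 1/4 inch overhead irrigation was given in some cases; otherwise pans were subirrigated. Rating was % inhibition at ~14 days.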

Morning Glory = conditions: Ipomoea, pre-emergence, read-out: % plant inhibition; for inhibition at 1000.92 g/ha: 0.893 lb/A; for inhibition at 5043.82 g/ha: 4.5 lb/A; for inhibition at 200.072 g/ha: 0.1785 lb/A
Method in brief: as §1

Corn = conditions: Zea mays, pre-emergence, read-out: % plant inhibition; for inhibition at 1000.92 g/ha: 0.893 lb/A; for inhibition at 5043.82 g/ha: 4.5 lb/A; for inhibition at 200.072 g/ha: 0.1785 lb/A
Method in brief: as §1

Blackgrass = conditions: Alopecurus myosuroides, pre-emergence, read-out: % plant inhibition; for inhibition at 200.072 g/ha: 0.1785 lb/A; for inhibition at 1000.92 g/ha: 0.893 lb/A; for inhibition at 5043.82 g/ha: 4.5 lb/A
Method in brief: as §1

Barnyardgrass = conditions: Echinochloa crus-galli, pre-emergence, read-out: % plant inhibition; for inhibition at 1000.92 g/ha: 0.893 lb/A; for inhibition at 5043.82 g/ha: 4.5 lb/A; for inhibition at 200.072 g/ha: 0.1785 lb/A
Method in brief: as §1

Wheat = conditions: Triticum aestivum, pre-emergence, read-out: % plant inhibition; for inhibition at 200.072 g/ha: 0.1785 lb/A; for inhibition at 1000.92 g/ha: 0.893 lb/A; for inhibition at 5043.82 g/ha: 4.5 lb/A
Method in brief: as §1

Soybean = conditions: Glycine max, pre-emergence, read-out: % plant inhibition; for inhibition at 1000.92 g/ha: 0.893 lb/A; for inhibition at 5043.82 g/ha: 4.5 lb/A; for inhibition at 200.072 g/ha: 0.1785 lb/A
Method in brief: as §1

Yellow Nutsedge = conditions: Cyperus, read-out: % plant inhibition; for inhibition at 1000.92 g/ha: 0.893 lb/A; for inhibition at 5043.82 g/ha: 4.5 lb/A; for inhibition at 200.072 g/ha: 0.1785 lb/A
Method in brief: as §1

Cocklebur = conditions: Xanthium strumarium, pre-emergence, read-out: % plant inhibition; for inhibition at 1000.92 g/ha: 0.893 lb/A; for inhibition at 5043.82 g/ha: 4.5 lb/A; for inhibition at 200.072 g/ha: 0.1785 lb/A
Method in brief: as §1

Bedstraw Catchweed = conditions: Galium aparine, pre-emergence, read-out: % plant inhibition; for inhibition at 200.072 g/ha: 0.1785 lb/A; for inhibition at 1000.92 g/ha: 0.893 lb/A; for inhibition at 5043.82 g/ha: 4.5 lb/A
Method in brief: as §1

Work on `Cc1c(-c2cc(F)ccc2F)nn(C)c1C(F)(F)F` [Compound 1, 3-(2,5-Difluorophenyl)-1,4-dimethyl-5-(trifluoromethyl)-1H-pyrazole] yielded an inhibition at 200.072 g/ha (Common Chickweed) of 0%, an inhibition at 1000.92 g/ha (Common Chickweed) of 0% and an inhibition at 5043.82 g/ha (Common Chickweed) of 0%. The inhibition at 1000.92 g/ha (Morning Glory) was 0%, the inhibition at 5043.82 g/ha (Morning Glory) was 35% and the inhibition at 1000.92 g/ha (Corn) was 0%. For the same molecule, the inhibition at 5043.82 g/ha (Corn) was 10%, the inhibition at 200.072 g/ha (Blackgrass) was 0% and the inhibition at 1000.92 g/ha (Blackgrass) was 0%. It also gave an inhibition at 5043.82 g/ha (Blackgrass) of 15%, an inhibition at 1000.92 g/ha (Barnyardgrass) of 0% and an inhibition at 5043.82 g/ha (Barnyardgrass) of 50%. The inhibition at 200.072 g/ha (Wheat) was 0%, the inhibition at 1000.92 g/ha (Wheat) was 0% and the inhibition at 5043.82 g/ha (Wheat) was 10%. The inhibition at 1000.92 g/ha (Soybean) was 0%, the inhibition at 5043.82 g/ha (Soybean) was 0% and the inhibition at 1000.92 g/ha (Yellow Nutsedge) was 0%. The inhibition at 5043.82 g/ha (Yellow Nutsedge) was 45%, the inhibition at 1000.92 g/ha (Cocklebur) was 0% and the inhibition at 5043.82 g/ha (Cocklebur) was 0%. The inhibition at 200.072 g/ha (Bedstraw Catchweed) was 0%, the inhibition at 1000.92 g/ha (Bedstraw Catchweed) was 0% and the inhibition at 5043.82 g/ha (Bedstraw Catchweed) was 0%.

`Cn1nc(-c2cc(F)ccc2F)c(C=O)c1C(F)(F)F` [Compound 34] gave an inhibition at 200.072 g/ha (Common Chickweed) of 0%, an inhibition at 1000.92 g/ha (Common Chickweed) of 0% and an inhibition at 5043.82 g/ha (Common Chickweed) of 0%. For the same molecule, the inhibition at 200.072 g/ha (Morning Glory) was 0%, the inhibition at 1000.92 g/ha (Morning Glory) was 0% and the inhibition at 5043.82 g/ha (Morning Glory) was 0%. For the same molecule, the inhibition at 200.072 g/ha (Corn) was 0%, the inhibition at 1000.92 g/ha (Corn) was 0% and the inhibition at 5043.82 g/ha (Corn) was 0%. It also gave an inhibition at 200.072 g/ha (Blackgrass) of 0%, an inhibition at 1000.92 g/ha (Blackgrass) of 0% and an inhibition at 5043.82 g/ha (Blackgrass) of 25%. The inhibition at 200.072 g/ha (Barnyardgrass) was 0%, the inhibition at 1000.92 g/ha (Barnyardgrass) was 0% and the inhibition at 5043.82 g/ha (Barnyardgrass) was 0%. The inhibition at 200.072 g/ha (Wheat) was 0%, the inhibition at 1000.92 g/ha (Wheat) was 0% and the inhibition at 5043.82 g/ha (Wheat) was 5%. The inhibition at 200.072 g/ha (Soybean) was 0%, the inhibition at 1000.92 g/ha (Soybean) was 0% and the inhibition at 5043.82 g/ha (Soybean) was 0%. It also gave an inhibition at 200.072 g/ha (Yellow Nutsedge) of 0%, an inhibition at 1000.92 g/ha (Yellow Nutsedge) of 0% and an inhibition at 5043.82 g/ha (Yellow Nutsedge) of 20%. It also gave an inhibition at 200.072 g/ha (Cocklebur) of 0%, an inhibition at 1000.92 g/ha (Cocklebur) of 0% and an inhibition at 5043.82 g/ha (Cocklebur) of 0%. The inhibition at 200.072 g/ha (Bedstraw Catchweed) was 0%, the inhibition at 1000.92 g/ha (Bedstraw Catchweed) was 0% and the inhibition at 5043.82 g/ha (Bedstraw Catchweed) was 10%.

`Cc1c(-c2cc(O)c(Cl)cc2F)nn(C)c1C(F)(F)F` [Compound 40] showed an inhibition at 40.0143 g/ha (Morning Glory; 0.0357 lb/A) of 0%, an inhibition at 200.072 g/ha (Morning Glory) of 0% and an inhibition at 1000.92 g/ha (Morning Glory) of 50%. The inhibition at 5043.82 g/ha (Morning Glory) was 100%, the inhibition at 40.0143 g/ha (Corn; 0.0357 lb/A) was 0% and the inhibition at 200.072 g/ha (Corn) was 0%. The inhibition at 1000.92 g/ha (Corn) was 5%, the inhibition at 5043.82 g/ha (Corn) was 85% and the inhibition at 40.0143 g/ha (Barnyardgrass; 0.0357 lb/A) was 0%. The inhibition at 200.072 g/ha (Barnyardgrass) was 0%, the inhibition at 1000.92 g/ha (Barnyardgrass) was 35% and the inhibition at 5043.82 g/ha (Barnyardgrass) was 100%. The inhibition at 40.0143 g/ha (Soybean; 0.0357 lb/A) was 0%, the inhibition at 200.072 g/ha (Soybean) was 0% and the inhibition at 1000.92 g/ha (Soybean) was 20%. The inhibition at 5043.82 g/ha (Soybean) was 20%, the inhibition at 40.0143 g/ha (Yellow Nutsedge; 0.0357 lb/A) was 0% and the inhibition at 200.072 g/ha (Yellow Nutsedge) was 0%. For the same molecule, the inhibition at 1000.92 g/ha (Yellow Nutsedge) was 70%, the inhibition at 5043.82 g/ha (Yellow Nutsedge) was 0% and the inhibition at 40.0143 g/ha (Cocklebur; 0.0357 lb/A) was 0%. It also gave an inhibition at 200.072 g/ha (Cocklebur) of 0%, an inhibition at 1000.92 g/ha (Cocklebur) of 45% and an inhibition at 5043.82 g/ha (Cocklebur) of 100%.
